Measurements published in PMC8007111, “Novel Potent Muscarinic Receptor Antagonists: Investigation on the Nature of Lipophilic Substituents in the 5- and/or 6-Positions of the 1,4-Dioxane Nucleus” (Journal of Medicinal Chemistry, 2020).

Biological target: T1, hM4 mAChR (Homo sapiens, UniProt P08173)
T1 construct: expressed in transfected cells; host or cells: CHO-K1 (membrane preparation)
T1 sequence (P08173 1-479): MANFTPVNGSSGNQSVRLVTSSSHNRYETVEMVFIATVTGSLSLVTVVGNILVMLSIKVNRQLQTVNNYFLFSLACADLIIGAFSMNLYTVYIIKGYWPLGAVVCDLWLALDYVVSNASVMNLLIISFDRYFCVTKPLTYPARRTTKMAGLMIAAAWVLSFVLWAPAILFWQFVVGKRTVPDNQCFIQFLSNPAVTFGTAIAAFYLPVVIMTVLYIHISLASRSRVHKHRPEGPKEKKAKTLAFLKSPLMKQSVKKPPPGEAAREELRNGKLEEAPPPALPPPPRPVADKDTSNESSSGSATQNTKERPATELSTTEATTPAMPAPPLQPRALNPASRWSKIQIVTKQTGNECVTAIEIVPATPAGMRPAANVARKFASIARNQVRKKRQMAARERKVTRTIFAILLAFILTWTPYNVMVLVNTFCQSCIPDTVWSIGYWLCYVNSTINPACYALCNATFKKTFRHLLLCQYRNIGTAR
Assay: [3H]NMS inhibition radioligand binding, hM4 in CHO-K1 cell membranes
Settings: [3H]NMS, CHO-K1 cell membranes; mean ± S.E.M.

C[N+](C)(C)C[C@@H]1COC[C@](c2ccccc2)(C2CCCCC2)O1.[I-] (relative stereo) [3b, 1-((2R*,6R*)-6-Cyclohexyl-6-phenyl-1,4-dioxan-2-yl)-N,N,N-trimethylmethanaminium Iodide]
pKi hM4: 9.03 ± 0.16
